Tests used:
[1] = system: T1, NMDA receptors; assay: Displacement of tritiated MK-801 from cerebral cortex membrane homogenate (first experiment); format: binding; conditions: for IC50: R0 MK-801, 2 hours at 37° C.
T1 construct: Emission ratio 1st test (%); other: R0 MK-801; [R1]; 1 · 10^−5 Mol/l; first test; Emission ratio 1st test (%); 1 · 10^−6 Mol/l; 1 · 10^−7 Mol/l; 1 · 10^−8 Mol/l; Emission ratio 1
Description: (§1) In this example, the affinity of fluoroethyl normemantine for NMDA receptors will be compared with that of glutamate (Glu) and of the product Dizocilpine (called “MK-801”), which are known NMDA receptor […] (see Neuroscience Letters, Vol. 80 (1), p. 111-114). MK-801 binds to two different sites in rat brain (Brain Res. 378, p. 133).
(§2) To that end, a material containing NMDA receptors will first be immersed in a solution containing labeled MK-801 (first experiment) or glutamate (second experiment) and then these materials are incubated in solutions containing fluoroethyl normemantine at various concentrations. Next, the radioactive emissions before and after this second incubation are compared. Lower emissions mean that fluoroethyl normemantine has a stronger affinity for NMDA receptors than that of the references and that NMDA receptors are inhibited thereby.
By means of these measurements, a correlation can be established between the concentration of the compound IE and NMDA receptor inhibition. The magnitude of the half-maximal inhibitory concentration (IC50) is deduced therefrom.
As the product to be tested (product R1), either memantine or compound I is used. The experimental protocol is as follows: a homogenate of cerebral cortex membrane (140 μg of proteins) is prepared and then incubated for 2 hours at 37° C. with 10 nM […] (tritiated MK-801) in the absence or presence of compound R1 (in buffer containing 5 mM HEPES/Tris (pH=7.4) and 0.1 mM ethyleneglycol tetraacetic acid). The comparison is made with an incubation of […] MK-801. The samples are quickly filtered under vacuum through glass-fiber filters and rinsed with 50 mM iced Tris-HCl. The filters are dried and their radioactivity is counted on a scintillation counter. The concentration of compound R1 varies, and by comparing for each concentration the difference in emission between the control filter (MK-801 alone) and the MK-801/R1 mixture filter, the ratio of inhibition of compound R1 for each concentration is obtained.

[2] = system: T2, NMDA receptors; assay: Displacement of tritiated glutamate from cerebral cortex membrane homogenate (second experiment); format: binding; conditions: R0 Glu
T2 construct: Emission ratio 1st test (%); other: R0 Glu; [R1]; 1 · 10^−6 M; first test; Emission ratio 1st test (%); 1 · 10^−7 M; 1 · 10^−8 M; 1 · 10^−9 M
Description: as §1
as §2, with “thereby. […]” for “thereby.”
The experimental protocol is much the same as in the first experiment: a homogenate of cerebral cortex membrane (140 μg of protein) is prepared and then incubated for 1 hour at 4° C. with 5 nM tritiated glutamate (tritiated Glu) in the absence or presence of fluoroethyl normemantine (in buffer containing 5 mM Tris-HCl (pH=7.7) and 10 mM ethyleneglycol tetraacetic acid). […] The filters are dried and their radioactivity is counted on a scintillation counter. […]

[3] = Mouse study of distribution in the body; format: in vivo, mice C57/Black 6J
Description: (§3) All the mice are the species C57/Black 6J provided by Charles River Laboratories (France) and about 8 weeks old.
(§4) The volume administered to each mouse is defined as […] and is administered once intravenously by means of a suitable syringe and needle.
At the prescribed time the mice are sacrificed, ground material from the organs is extracted and the concentration therein is analyzed by HPLC-MS assays.

[4] = Toxicity after a single intravenous administration in mice; format: in vivo, mice C57/Black 6J; conditions: male mice, single 0.125 μg/kg intravenously
Description: as §3, §4

[5] = Solubility in water; format: physicochemical
[6] = Lipophilicity log(P), n-octanol / pH 7.4 buffer, HPLC; format: physicochemical; conditions: 50/50 by volume pH 7.4 buffer solution and octanol
Description: Lipophilicity: determined by log(P)=log([I]n-octanol/[I]water), by placing the compound (I) in a 50/50 mixture by volume of pH 7.4 buffer solution and octanol, separating the phases, then assaying by means of HPLC the level of the compound (I) present in each of said phases.

[7] = mice, 0.125 μg/kg intravenously, sacrifice at 3 minutes

NC12CC3CC(C1)CC(CCF)(C3)C2 [Fluoroethyl normemantine]
affinity, order of magnitude ([1]; R0 MK-801): ~10^−6 M | displacement of MK-801 ([1]; R0 MK-801): displaces MK-801 | IC50 [1]: 6.1 µM | ability to displace Glu [2]: unable to displace Glu | IC50 ([2]; 1 hour at 4° C.): cannot be measured | affinity for the brain (share in brain), comparison with prior art ([3]; comparison sentence of b89, time not restated): 12%

CC12CC3CC(C)(C1)CC(N)(C3)C2 [Memantine]
affinity, order of magnitude ([1]; R0 MK-801): ~10^−6 M | IC50 [1]: 1.1 µM | Mean (emission ratio) ([1]; R0 MK-801, [R1] 1 · 10^−5 Mol/l): 10.8% | Mean (emission ratio) ([1]; R0 MK-801, [R1] 1 · 10^−6 Mol/l): 52.3% | Mean (emission ratio) ([1]; R0 MK-801, [R1] 1 · 10^−7 Mol/l): 88.8% | Mean (emission ratio) ([1]; R0 MK-801, [R1] 1 · 10^−8 Mol/l): 101.4% | Mean (emission ratio) ([1]; R0 MK-801, [R1] 1 · 10^−9 Mol/l): 96.9% | Mean (emission ratio) ([1]; R0 MK-801, [R1] 3 · 10^−6 Mol/l): 29.0% | Mean (emission ratio) ([1]; R0 MK-801, [R1] 3 · 10^−7 Mol/l): 73.1% | Mean (emission ratio) ([1]; R0 MK-801, [R1] 3 · 10^−8 Mol/l): 97.5% | Mean (emission ratio) ([1]; R0 MK-801, [R1] 3 · 10^−9 Mol/l): 103.3%

NC12CC3CC(C1)CC(CCF)(C3)C2 [^18F-fluoroethyl normemantine]
toxicity (conclusion) [4]: not toxic at the doses tested | solubility [5]: > 100 mM | Brain: % of the injected dose [3, 7]: 12 % of the injected dose | Kidneys: share of injected dose [3, 7]: 18% | Liver: share of injected dose [3, 7]: 20%

NC12CC3CC(C1)CC(CCF)(C3)C2 [compound (I)]
log(P) [6]: 3.1 (±0.5)

— US9714212B2, “Chemical compounds derived from normemantine and use of same in the medical field” (M2I DEVELOPMENT, priority 2013, dated 2017)
